This passage reports inhibition results from ChEMBL document CHEMBL5665443, “Enzyme Inhibitor Single Concentration assay results for EUbOPEN Chemogenomics Library” (2024).

The structures appear in SMILES notation.

The target in assay [1] is Methyl-CpG-binding domain protein 4 (Homo sapiens) (UniProt O95243). The following applies: Compound Concentration 10.0 uM, Hit No.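 Also: MBD4 activity read as fluorescence at 594 nm from cleavage and release of a quenched duplex DNA oligonucleotide, with APE1 coupled to incise the strand and raise turnover.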
Sequence of Methyl-CpG-binding domain protein 4 (Homo sapiens) (O95243 whole entry, the tested form may be a part): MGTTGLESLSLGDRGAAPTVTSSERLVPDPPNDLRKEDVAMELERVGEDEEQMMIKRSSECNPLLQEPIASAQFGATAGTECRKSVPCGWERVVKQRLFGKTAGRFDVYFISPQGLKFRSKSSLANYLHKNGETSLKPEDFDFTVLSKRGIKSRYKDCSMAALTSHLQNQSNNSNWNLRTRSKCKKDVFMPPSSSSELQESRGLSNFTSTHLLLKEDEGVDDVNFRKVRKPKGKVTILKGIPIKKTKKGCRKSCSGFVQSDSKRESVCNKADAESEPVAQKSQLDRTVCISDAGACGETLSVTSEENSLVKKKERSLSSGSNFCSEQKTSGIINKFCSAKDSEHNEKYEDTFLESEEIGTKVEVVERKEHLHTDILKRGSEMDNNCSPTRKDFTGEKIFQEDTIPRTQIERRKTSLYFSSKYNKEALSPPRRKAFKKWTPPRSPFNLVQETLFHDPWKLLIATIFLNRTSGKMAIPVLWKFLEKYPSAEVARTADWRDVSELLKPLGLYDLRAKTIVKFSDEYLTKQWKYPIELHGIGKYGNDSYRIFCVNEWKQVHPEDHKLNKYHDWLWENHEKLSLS
Assay [2] deals with DNA-3-methyladenine glycosylase (Homo sapiens) (UniProt P29372). As to conditions: Compound Concentration 10.0 uM, Hit No.
Sequence of DNA-3-methyladenine glycosylase (Homo sapiens) (P29372 whole entry): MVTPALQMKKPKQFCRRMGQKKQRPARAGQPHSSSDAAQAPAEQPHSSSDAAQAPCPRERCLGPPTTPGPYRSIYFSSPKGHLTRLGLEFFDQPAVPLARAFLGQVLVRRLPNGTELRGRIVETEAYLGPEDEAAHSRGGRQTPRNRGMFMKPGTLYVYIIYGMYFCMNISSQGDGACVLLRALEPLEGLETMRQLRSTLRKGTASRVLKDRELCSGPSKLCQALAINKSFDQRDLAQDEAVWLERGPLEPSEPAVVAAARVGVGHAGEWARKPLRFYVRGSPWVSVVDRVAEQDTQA
Assay [3] has as its target T1, Adenine DNA glycosylase (Homo sapiens) (UniProt Q9UIF7).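 Also: human MUTYH activity read as 594 nm fluorescence from cleavage and release of a quenched DNA duplex, coupled with APE1 for strand incision, lower signal meaning inhibition.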
T1 sequence (whole entry): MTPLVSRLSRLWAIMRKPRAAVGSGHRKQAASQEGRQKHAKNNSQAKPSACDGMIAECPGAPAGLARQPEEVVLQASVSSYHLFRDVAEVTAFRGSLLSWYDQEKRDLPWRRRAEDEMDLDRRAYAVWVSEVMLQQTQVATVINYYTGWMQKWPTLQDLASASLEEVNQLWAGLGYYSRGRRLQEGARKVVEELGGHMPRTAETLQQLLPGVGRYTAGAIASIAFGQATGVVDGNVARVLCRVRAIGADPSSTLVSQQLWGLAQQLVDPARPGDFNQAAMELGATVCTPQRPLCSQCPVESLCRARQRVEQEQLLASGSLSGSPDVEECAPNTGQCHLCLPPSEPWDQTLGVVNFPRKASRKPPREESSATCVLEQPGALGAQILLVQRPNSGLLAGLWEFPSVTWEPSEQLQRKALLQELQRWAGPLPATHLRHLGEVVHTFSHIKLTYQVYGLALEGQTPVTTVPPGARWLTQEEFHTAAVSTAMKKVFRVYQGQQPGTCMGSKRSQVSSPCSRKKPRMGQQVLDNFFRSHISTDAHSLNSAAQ
The following applies: Compound Concentration 10.0 uM, Hit No.

Assay [4] addresses Endonuclease 8-like 1 (Homo sapiens) (UniProt Q96FI4). As to conditions: Compound Concentration 10.0 uM, Hit No.
Assay [5] deals with T2, Endonuclease 8-like 2 (Homo sapiens) (UniProt Q969S2).
T2 sequence (whole entry): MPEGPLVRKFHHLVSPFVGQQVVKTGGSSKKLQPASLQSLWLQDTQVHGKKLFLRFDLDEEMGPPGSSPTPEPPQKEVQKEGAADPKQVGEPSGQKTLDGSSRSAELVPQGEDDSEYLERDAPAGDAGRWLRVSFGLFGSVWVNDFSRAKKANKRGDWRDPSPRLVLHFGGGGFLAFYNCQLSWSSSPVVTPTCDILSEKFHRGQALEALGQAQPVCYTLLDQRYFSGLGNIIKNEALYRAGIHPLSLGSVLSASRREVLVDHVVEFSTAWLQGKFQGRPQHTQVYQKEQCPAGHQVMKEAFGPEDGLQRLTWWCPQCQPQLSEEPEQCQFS
As to conditions: Compound Concentration 10.0 uM, Hit No.

The target in assay [6] is T3, Endonuclease III-like protein 1 (Homo sapiens) (UniProt P78549).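 Also: enzyme assay tracking NTHL1 cutting and release of a quenched double-stranded DNA oligo substrate, read as fluorescence at 594 nm.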
T3 sequence (whole entry): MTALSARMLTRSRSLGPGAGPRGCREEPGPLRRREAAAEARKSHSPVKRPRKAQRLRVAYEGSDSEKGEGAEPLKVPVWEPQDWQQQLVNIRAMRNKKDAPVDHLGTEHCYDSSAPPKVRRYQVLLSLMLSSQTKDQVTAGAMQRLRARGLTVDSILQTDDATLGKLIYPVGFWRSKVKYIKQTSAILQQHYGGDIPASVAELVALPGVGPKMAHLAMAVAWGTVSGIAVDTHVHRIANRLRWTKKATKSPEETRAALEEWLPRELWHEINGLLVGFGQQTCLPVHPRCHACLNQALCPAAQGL
As to conditions: Compound Concentration 10.0 uM.

For assay [7], the target named is N-glycosylase/DNA lyase (Homo sapiens) (UniProt O15527). The following applies: Compound Concentration 10.0 uM.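 Also: OGG1 cleavage of a quenched duplex DNA oligonucleotide, coupled to APE1 for strand incision, read as fluorescence at 594 nm.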
Sequence of N-glycosylase/DNA lyase (Homo sapiens) (O15527 whole entry): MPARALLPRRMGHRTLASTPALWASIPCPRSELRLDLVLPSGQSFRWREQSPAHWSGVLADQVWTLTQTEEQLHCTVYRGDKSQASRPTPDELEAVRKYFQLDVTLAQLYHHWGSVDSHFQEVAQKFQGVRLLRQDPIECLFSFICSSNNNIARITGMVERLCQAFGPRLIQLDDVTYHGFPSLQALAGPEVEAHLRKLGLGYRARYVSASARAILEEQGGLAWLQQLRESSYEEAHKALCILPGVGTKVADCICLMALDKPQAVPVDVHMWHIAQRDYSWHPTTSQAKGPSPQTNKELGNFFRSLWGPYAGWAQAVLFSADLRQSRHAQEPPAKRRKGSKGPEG
For assay [8], the target named is T4, Single-strand selective monofunctional uracil DNA glycosylase (Homo sapiens) (UniProt Q53HV7).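 Also: enzymatic SMUG1 assay coupled with APE1, reading fluorescence at 594 nm released when a quenched double-stranded DNA oligonucleotide substrate is cleaved and separated.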
T4 sequence (whole entry): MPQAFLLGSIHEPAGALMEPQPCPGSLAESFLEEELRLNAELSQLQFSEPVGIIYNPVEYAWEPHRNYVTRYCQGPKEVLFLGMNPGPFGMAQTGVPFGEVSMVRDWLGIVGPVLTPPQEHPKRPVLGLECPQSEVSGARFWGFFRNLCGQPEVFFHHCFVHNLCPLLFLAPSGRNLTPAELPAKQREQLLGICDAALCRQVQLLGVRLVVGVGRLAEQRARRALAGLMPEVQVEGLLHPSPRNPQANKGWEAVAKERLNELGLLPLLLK
As to conditions: Compound Concentration 10.0 uM, Hit No.

Assay [9] deals with G/T mismatch-specific thymine DNA glycosylase (Homo sapiens) (UniProt Q13569). The following applies: Compound Concentration 10.0 uM, Hit No.
Sequence of G/T mismatch-specific thymine DNA glycosylase (Homo sapiens) (Q13569 whole entry): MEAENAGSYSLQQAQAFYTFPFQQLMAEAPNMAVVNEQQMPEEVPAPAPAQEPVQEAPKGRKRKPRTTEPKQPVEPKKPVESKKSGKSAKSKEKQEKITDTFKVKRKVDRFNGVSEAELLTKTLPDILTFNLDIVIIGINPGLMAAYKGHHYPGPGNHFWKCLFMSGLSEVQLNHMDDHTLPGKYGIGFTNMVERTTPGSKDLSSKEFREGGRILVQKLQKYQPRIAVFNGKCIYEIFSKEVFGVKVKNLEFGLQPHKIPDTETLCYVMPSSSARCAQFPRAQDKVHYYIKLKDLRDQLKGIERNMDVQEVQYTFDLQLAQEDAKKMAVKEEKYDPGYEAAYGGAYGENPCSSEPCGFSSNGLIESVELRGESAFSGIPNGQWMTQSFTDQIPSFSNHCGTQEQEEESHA
The target in assay [10] is Uracil-DNA glycosylase (Homo sapiens) (UniProt P13051). As to conditions: Compound Concentration 10.0 uM, Hit No.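 Also: UNG excision on a quenched double-stranded DNA oligo probe, with APE1 added for strand incision and turnover, read as fluorescence at 594 nm as strands separate.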
Sequence of Uracil-DNA glycosylase (Homo sapiens) (P13051 whole entry): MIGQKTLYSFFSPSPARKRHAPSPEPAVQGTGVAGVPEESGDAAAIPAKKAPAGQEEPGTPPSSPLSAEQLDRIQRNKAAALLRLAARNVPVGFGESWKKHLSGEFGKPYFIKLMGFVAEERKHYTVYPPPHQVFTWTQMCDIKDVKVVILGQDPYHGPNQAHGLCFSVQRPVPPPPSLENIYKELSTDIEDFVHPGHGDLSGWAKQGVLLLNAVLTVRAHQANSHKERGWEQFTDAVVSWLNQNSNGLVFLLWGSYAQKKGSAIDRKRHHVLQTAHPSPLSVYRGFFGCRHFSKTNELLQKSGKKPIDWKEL

Sequence of Endonuclease 8-like 1 (Homo sapiens) (Q96FI4 whole entry): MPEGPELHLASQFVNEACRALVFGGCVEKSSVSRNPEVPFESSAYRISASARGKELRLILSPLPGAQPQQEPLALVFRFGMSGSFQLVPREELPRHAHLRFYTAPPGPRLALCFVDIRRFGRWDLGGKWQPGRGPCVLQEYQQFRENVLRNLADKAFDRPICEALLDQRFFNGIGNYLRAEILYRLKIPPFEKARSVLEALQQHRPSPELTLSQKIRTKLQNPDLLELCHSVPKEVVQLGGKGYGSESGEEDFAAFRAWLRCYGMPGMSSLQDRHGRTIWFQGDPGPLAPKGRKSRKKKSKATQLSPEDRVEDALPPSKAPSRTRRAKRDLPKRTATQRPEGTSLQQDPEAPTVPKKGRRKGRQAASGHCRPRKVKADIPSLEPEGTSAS

As usually defined, the inhibition is the drop in the measured response relative to a control, in per cent. Consider `N[C@@H](CCP(=O)(O)O)C(=O)O`, for which the inhibition in assay [1] was 13%; in assay [2], -0.846%; in assay [3], -5.97%; in assay [4], 7.42%; in assay [5], -3.15%; in assay [6] (Hit No) it was 12.1%. Also, the inhibition is -5.28% in assay [7] (Hit No), -0.24% in assay [8], 17.7% in assay [9] and -0.352% in assay [10].
In the case of `O=C1NCN(c2ccccc2)C12CCN(CCCOc1ccc(F)cc1)CC2`, the inhibition was 6.25% in [1]; -9.19% in [2]; -5.23% in assay [3]; -1.54% in [4]; 2.26% in assay [5]; 4.86% in assay [6] (Hit No). For the same molecule, the inhibition in assay [7] (Hit No) is -4.77%; in assay [8], 13.1%; in assay [9], 13.9%; in [10], -6.4%.
As for `CC(=O)[C@H]1CC[C@H]2[C@@H]3CC[C@H]4C[C@H](O)CC[C@]4(C)[C@H]3CC[C@]12C`, the inhibition in assay [1] was 25.8%; in assay [2], 31.5%; in assay [3], 1.4%; in assay [4], 9.05%; in [5], 5.51%; in assay [6] (Hit Yes), 46%. In addition, the inhibition in assay [7] (Hit No) is 7.89%; in assay [8], 13.9%; in assay [9] it was 19.2%; in assay [10] it was -1.14%.
For the molecule `O=C(O)CCc1ccc(NCc2cccc(Oc3ccccc3)c2)cc1`, the inhibition in [1] was 13.6%; in [2] it was 6.47%; in assay [3], 13.9%; in assay [4], -7.7%; in [5] it was -9.01%; in assay [6] (Hit No), -4.39%. Further, the inhibition in assay [7] (Hit No) is -0.368%; in assay [8], -4.08%; in assay [9], 20%; in assay [10], -1.29%.
For `CCOC(=O)N1CCC(c2cc(O)n3nc(C)c(-c4ccc(F)cc4)c3n2)CC1`, the inhibition stood at 40.6% in assay [1]; 38.1% in assay [2]; 75.7% in assay [3]; 5.34% in assay [4]; 2.71% in assay [5]; 11.3% in assay [6] (Hit No). Besides, the inhibition in assay [7] (Hit No) was -3.67%; in assay [8], 6.03%; in assay [9], 48.9%; in assay [10], -0.428%.
As to `O=C1CC[C@@]2(O)[C@H]3Cc4ccc(O)c5c4[C@@]2(CCN3CC2CC2)[C@H]1O5`, the inhibition in assay [1] is 4.42%; in assay [2], 4.49%; in assay [3] it was 14.6%; in [4] it was -9.92%; in assay [5], -8.5%; in assay [6] (Hit No) it was -4.39%. For the same molecule, the inhibition in assay [7] (Hit No) is -3.73%; in assay [8], -9.51%; in assay [9], 27.8%; in assay [10] it was -2.62%.
Regarding `CCc1cc2c(cc1CC)CC(NC[C@H](O)c1ccc(O)c3[nH]c(=O)ccc13)C2`, the inhibition in [1] was 15.2%; in [2] it was 1.41%; in assay [3], 21.3%; in assay [4] it was 0.834%; in [5] it was -2.48%; in [6] (Hit No), 12.9%. Also, the inhibition in [7] (Hit No) is 4.23%; in [8], -5.22%; in assay [9], 16.1%; in assay [10], -8.46%.
Consider `CCCCc1nc2ccc(NC(=O)NC3CCCCC3)cc2n1Cc1ccc(-c2ccccc2C(=O)O)cc1`, for which the inhibition in assay [1] worked out at 30.2%; in [2], 24%; in assay [3], 38.2%; in assay [4], 9.29%; in assay [5], 11%; in assay [6] (Hit No) it was 8.52%. For the same molecule, the inhibition is -1.26% in [7] (Hit No), -6.72% in [8], 33.1% in assay [9] and -9.57% in [10].
Regarding `CCOC(=O)N[C@@H]1CC[C@@H]2[C@@H](C1)C[C@H]1C(=O)O[C@H](C)[C@H]1[C@H]2/C=C/c1ccc(-c2cccc(F)c2)cn1`, the inhibition in [1] is -1.19%; in assay [2], -7.15%; in assay [3], 1.43%; in assay [4], 5.28%; in assay [5], -1.73%; in assay [6] (Hit No), 2.66%. The inhibition in assay [7] (Hit No) is 8.48%; in [8] it was 10.5%; in assay [9] it was 13.4%; in [10], -5.33%.
Regarding `Cc1cc(C)c(N)c(C#Cc2cccc(F)c2)n1`, the inhibition was 6.71% in assay [1]; 3.92% in assay [2]; 4.63% in assay [3]; 0.982% in [4]; 5.26% in assay [5]; -3.21% in [6] (Hit No). In addition, the inhibition was 4.23% in assay [7] (Hit No), 6.75% in assay [8], 17.2% in assay [9] and -6.05% in [10].
As to `Cc1nn(C)c2nc(NNC(=O)Nc3cc(Cl)nc(Cl)c3)cc(C(C)C)c12`, the inhibition in [1] was -2.58%; in assay [2], -8%; in assay [3], 28.9%; in assay [4], -1.83%; in assay [5] it was 7.5%; in assay [6] (Hit No), 4.12%. The inhibition in assay [7] (Hit No) is -2.44%; in assay [8], 4.42%; in assay [9] it was 16.6%; in assay [10], -4.71%.
`CCOC(=O)c1ccc(N2C(=O)C(O)=C(C(=O)c3ccc(OC)cc3)C2c2ccc(F)cc2)cc1` (stereo not given): the inhibition is 55.1% in assay [1]; 15.7% in assay [2]; 62.9% in assay [3]; 11.9% in assay [4]; 0.414% in assay [5]; 21.2% in [6] (Hit No). The inhibition in assay [7] (Hit No) was -5.97%; in assay [8], 1.4%; in assay [9], 46.7%; in [10], 1.33%.
In the case of `O=C(O)c1ccccc1S(=O)(=O)NCCCCN1C(=O)c2cccc3cccc(c23)C1=O`, the inhibition in [1] is 12%; in assay [2], 3.23%; in [3] it was 23.6%; in assay [4], 8.25%; in assay [5], 8%; in [6] (Hit No), -8.34%. Further, the inhibition in [7] (Hit No) was 2.55%; in assay [8] it was 12.5%; in [9], 16.1%; in [10], -8.5%.
Turning to `Cc1nc(-c2ccc(C(F)(F)F)cc2)sc1COc1ccc([C@H](CC(=O)O)c2ccon2)cc1`, the inhibition was determined as 20.8% in assay [1]; 3.92% in assay [2]; 23.2% in assay [3]; 3.95% in [4]; 2.26% in [5]; 16.6% in [6] (Hit No). Moreover, the inhibition in assay [7] (Hit Yes) was 41.1%; in assay [8] it was 7.09%; in assay [9], 27%; in assay [10] it was -5.51%.
